Test results from patent US5229378A, “Glycyrrhetic acid derivatives” (Senju Pharmaceutical Co., Ltd., priority 1991, dated 1993).

Legend:
[1] = system: lipid peroxide (LPO) in rat brain homogenate; assay: Antioxidant activity assay by the method of Stocks (lipid peroxide in brain homogenate, TBA method); assay type: biochemical, male Wistar rats; details: LPO as MDA per mg protein, 37° C., 60 minutes
Method: The antioxidant activity of the compound of the invention was assayed by the method of Stocks.
This experiment was performed using male Wistar rats (about 10 weeks old). After perfusion for removal of blood from the brain, the brain tissue was removed and homogenized in 4 volumes of ice-cooled 0.1M phosphate-NaCl buffer (pH 7.4). The homogenate was centrifuged at 1000×g for 10 minutes and the supernatant was taken. The brain homogenate was diluted with 10 volumes of phosphate-NaCl buffer and a 500 μl portion of the dilution was incubated at 37° C. for 60 minutes. The reaction was quenched by pouring the incubate in ice-water and 490 μl of 0.1M phosphate-NaCl buffer was added. The amount of lipid peroxide (LPO) was determined by the TBA method. The amount of LPO was expressed in the amount of malondialdehyde (MDA) per mg protein. The amount of protein was determined by the method of Lowry.

[2] = system: formalin-induced mouse paw edema; assay: Antiinflammatory activity assay, mouse paw edema test (formalin); assay type: in vivo, male ddy mice; details: 200 mg orally, 1 hour before 0.05 ml of 0.75% formalin into right hind paw
Method: The antiinflammatory activity of the compound of the invention was assayed by the mouse paw edema test. The experiment was performed in groups of 6 male ddy mice weighting 20 g-25 g. The volume of the right hind paw of each mouse was measured with a plethysmograph and 200 mg of the compound of the invention was orally administered. After 1 hour, 0.05 ml of 0.75% formalin as a phlogistic agent was injected subcutaneously into the dorsum of the right hind paw and the foot volume was measured at timed intervals. The edema rate and the percent inhibition was calculated from the values found. [formula]

SMILES | % Inhibition ([1]; Dosage 1 × 10^-3 M) [%] | % Inhibition ([1]; Dosage 1 × 10^-4 M) [%] | % Inhibition ([2]; Hour 1) [%] | % Inhibition ([2]; Hour 4) [%]
COC(=O)[C@@]1(C)CC[C@]2(C)CC[C@]3(C)C(=CC(=O)[C@@H]4[C@@]5(C)CC[C@H](OP(=O)(O)OC6=C(O)[C@@H]([C@@H](O)CO)OC6=O)C(C)(C)[C@@H]5CC[C@]43C)[C@@H]2C1 [(1), Methyl 3-(L-ascorbyl-2-phosphoryl)-glycyrrhetinate] | 95.3 | 87.6 | 36.36 | 37.84
CCOC(=O)[C@@]1(C)CC[C@]2(C)CC[C@]3(C)C(=CC(=O)[C@@H]4[C@@]5(C)CC[C@H](OP(=O)(O)OC6=C(O)[C@@H]([C@@H](O)CO)OC6=O)C(C)(C)[C@@H]5CC[C@]43C)[C@@H]2C1 [(2), Ethyl 3-(L-ascorbyl-2-phosphoryl)-glycyrrhetinate] | 95.4 | 44.7 | 18.84 | 28.72
CCCCCCOC(=O)[C@@]1(C)CC[C@]2(C)CC[C@]3(C)C(=CC(=O)[C@@H]4[C@@]5(C)CC[C@H](OP(=O)(O)OC6=C(O)[C@@H]([C@@H](O)CO)OC6=O)C(C)(C)[C@@H]5CC[C@]43C)[C@@H]2C1 [(3), Hexyl 3-(L-ascorbyl-2-phosphoryl)-glycyrrhetinate potassium] | 94.8 | 82.5 | 22.50 | 22.07
CCCCCCCCCCCCOC(=O)[C@@]1(C)CC[C@]2(C)CC[C@]3(C)C(=CC(=O)[C@@H]4[C@@]5(C)CC[C@H](OP(=O)(O)OC6=C(O)[C@@H]([C@@H](O)CO)OC6=O)C(C)(C)[C@@H]5CC[C@]43C)[C@@H]2C1 [(4), Lauryl 3-(L-ascorbyl-2-phosphoryl)-glycyrrhetinate potassium] |  |  | 49.03 | 50.57
CCCCCCCCCCCCCCCCCCOC(=O)[C@@]1(C)CC[C@]2(C)CC[C@]3(C)C(=CC(=O)[C@@H]4[C@@]5(C)CC[C@H](OP(=O)(O)OC6=C(O)[C@@H]([C@@H](O)CO)OC6=O)C(C)(C)[C@@H]5CC[C@]43C)[C@@H]2C1 [(5), Stearyl 3-(L-ascorbyl-2-phosphoryl)-glycyrrhetinate potassium] |  |  | 31.02 | 34.42
CC1(C)[C@@H](O)CC[C@]2(C)[C@H]3C(=O)C=C4[C@@H]5C[C@@](C)(C(=O)O)CC[C@]5(C)CC[C@@]4(C)[C@]3(C)CC[C@@H]12 [(6), Glycyrrhetic acid] |  |  | 16.28 | 25.37
